Reference: patent publication US7482328B2, “Antimicrobial polypeptide and utilization thereof” (Toagosei Co., Ltd., priority 2002, dated 2009)
Residues, ends and D or L forms follow the SMILES beside them. No end group written: not given here.

Tests used:
Type in all cases: cell-based
S. aureus = system: S. aureus
Description: (§1) Regarding the antimicrobial polypeptide of the present invention (samples 1 to 33) and the polypeptides of comparative samples 1 to 3, the antimicrobial activities (minimum inhibitory concentration: MIC) with respect to gram-negative bacteria (E. coli) and gram-positive bacteria (S. aureus) were determined by a liquid medium dilution technique using a 96-well microplate.
(§2) More specifically, liquid bouillon media (“NUTRIENT BROTH Dehydraged” manufactured by DIFCO) in a polypeptide concentration of 500, 250, 125, 62.5, 31.3, 15.6, 7.8, 3.9, 1.9, 1.0 and 0.5 μM were prepared, and filled in a 96-well microplate. On the other hand, bacteria suspension (about 2×10^6 cells/mL) that had been stationary cultured at 37° C. for 18 hours with LB Broth, Lennox (manufactured by DIFCO) were inoculated to each well of the 96-well microplate in an equal amount to that of the pharmaceutical solution (the above-described polypeptide-containing bouillon medium). After inoculation, culture was started in an incubator at 37° C., and it was examined based on the turbidity after 24 hours and 48 hours whether or not bacteria are present. The minimum of the polypeptide concentrations in which no increase in the turbidity caused by bacteria at the time of measurement was observed was defined as MIC in this example.
(§3) The unit of MIC in Table 2 is μM. […]

E. coli = system: E. coli
Description: as §1, §2, §3

[1] = system: gram-negative bacteria (E. coli) and gram-positive bacteria (S. aureus); experiment: antimicrobial test of Example 2, results summed up in words; conditions: summary of Table 2, E. coli and S. aureus
Description: as §1, §2

[2] = system: Escherichia coli O157:H7 sakai; conditions: O157:H7, 24 h
Description: as §2
Next, regarding the polypeptides of the samples 16, 17, 10, 14, and 20, the same antimicrobial test (MIC measurement test) as in Example 2 was performed with respect to various bacteria (see Table 3), and the antimicrobial spectra of these polypeptides were evaluated.

| Compound | antimicrobial activity (MIC) S. aureus after 24h (S. aureus) | antimicrobial activity (MIC) S. aureus after 48h (S. aureus) | antimicrobial activity (MIC) E. coli after 24h (E. coli) | antimicrobial activity (MIC) E. coli after 48h (E. coli) | antimicrobial activities (in words) [1] | antimicrobial activity after 24 hours: MIC [2] |
| --- | --- | --- | --- | --- | --- | --- |
| RKKKRKV-NH2 [sample 24, RKKKRKV-CONH2] | 1.0 µM | 1.0 µM | 3.9 µM | 15.6 µM | higher antimicrobial activities | – |
| LPPLERLTLRKKKRKV [sample 13, LPPLERLTLRKKKRKV] | 3.9 µM | 3.9 µM | 15.6 µM | 15.6 µM | – | – |
| N=C(N)NCCC[C@H](NC(=O)[C@H](CCCNC(=N)N)NC(=O)[C@H](CCCNC(=N)N)NC(=O)[C@H](CCC(N)=O)NC(=O)[C@H](CCCNC(=N)N)NC(=O)[C@H](CCCNC(=N)N)NC(=O)[C@H](CCCCN)NC(=O)[C@H](CCCCN)NC(=O)[C@@H](N)CCCNC(=N)N)C(=O)O [sample 5, RKKRRQRRR] | – | – | – | – | particularly high antimicrobial activities | – |
| RQARRNRRRRWRLPPLERLTLD [sample 10] | – | – | – | – | high antimicrobial activities | – |
| RKKKRKVRKKKRKV-NH2 [sample 25, RKKKRKVRKKKRKV-CONH2] | 1.9 µM | 1.9 µM | 3.9 µM | 3.9 µM | – | – |
| PKKKRKVPPRKKRTVV [sample 19, PKKKRKVPPRKKRTVV] | 7.8 µM | 7.8 µM | 3.9 µM | 3.9 µM | – | – |
| LPPLERLTLPKKKRKV [sample 9, LPPLERLTLPKKKRKV] | 3.9 µM | 3.9 µM | 31.3 µM | 31.3 µM | – | – |
| RIRKKLR [sample 3, RIRKKLR] | 62.5 µM | 62.5 µM | 62.5 µM | 62.5 µM | – | – |
| RKKKRKVLPPLERLTL [sample 12, RKKKRKVLPPLERLTL] | 3.9 µM | 3.9 µM | 15.6 µM | 15.6 µM | – | – |
| RQARRNRRRRWR [sample 2, RQARRNRRRRWR] | – | – | – | – | particularly high antimicrobial activities | – |
| PRRRK-NH2 [sample 23, PRRRK] | 7.8 µM | 15.6 µM | 31.3 µM | 31.3 µM | – | – |
| RKKKRKVVKRKKKR [sample 28, RKKKRKVVKRKKKR] | 3.9 µM | 7.8 µM | 1.0 µM | 1.0 µM | particularly high antimicrobial activities | – |
| PRRRKPRRRK [sample 18, PRRRKPRRRK] | 7.8 µM | 7.8 µM | 3.9 µM | 3.9 µM | – | – |
| PKKKRRV [sample 26, PKKKRRV] | 125.0 µM | 125.0 µM | 62.5 µM | 500.0 µM | – | – |
| LALKLAGLDIRKKKRKV [sample 15, LALKLAGLDIRKKKRKV] | 1.9 µM | 3.9 µM | 3.9 µM | 3.9 µM | high antimicrobial activities | – |
| PPRKKRTVV [sample 4, PPRKKRTVV] | 125.0 µM | 125.0 µM | 250.0 µM | >500 µM | – | – |

| Compound | antimicrobial activity (MIC) S. aureus after 24h (S. aureus) | antimicrobial activity (MIC) S. aureus after 48h (S. aureus) | antimicrobial activity (MIC) E. coli after 24h (E. coli) | antimicrobial activity (MIC) E. coli after 48h (E. coli) | antimicrobial activities (in words) [1] | antimicrobial activity after 24 hours: MIC [2] |
| --- | --- | --- | --- | --- | --- | --- |
| PRRRK [sample 6, PRRRK] | 250.0 µM | 500.0 µM | >500 µM | >500 µM | – | – |
| PKKKRKVLPPLERLTL [sample 8, PKKKRKVLPPLERLTL] | 3.9 µM | 3.9 µM | 31.3 µM | 31.3 µM | – | – |
| MRKKKRKVRKKKRKV [sample 33, MRKKKRKVRKKKRKV] | 1.9 µM | 1.9 µM | 3.9 µM | 3.9 µM | – | – |
| RKKKRKV-OH [sample 7, RKKKRKV] | 15.6 µM | 31.3 µM | 62.5 µM | 500.0 µM | – | – |
| CC(C)[C@H](NC(=O)[C@H](CCCCN)NC(=O)[C@H](CCCNC(=N)N)NC(=O)[C@H](CCCCN)NC(=O)[C@H](CCCCN)NC(=O)[C@H](CCCCN)NC(=O)[C@@H]1CCCN1)C(=O)O [sample 1, PKKKRKV] | 62.5 µM | 125.0 µM | 62.5 µM | >500 µM | – | – |
| N=C(N)NCCC[C@H](NC(=O)[C@H](CCCNC(=N)N)NC(=O)[C@H](CCCCN)NC(=O)[C@@H](N)CCCNC(=N)N)C(=O)O [comparative sample 1, RKRR, reference compound] (H-RKRR-OH; N-terminus and C-terminus assumed) | >500 µM | >500 µM | >500 µM | >500 µM | – | – |
| RKKKRKVRKKKRKVRKKKRKV [sample 21] | 0.5 µM | 0.5 µM | 1.9 µM | 1.9 µM | – | – |
| RKKKRKVKRKKKR [sample 29, RKKKRKVKRKKKR] | 3.9 µM | 7.8 µM | 1.0 µM | 1.0 µM | particularly high antimicrobial activities | – |
| RKKKRKVRKKKRKVRKKKRKVRKKKRKV [sample 22] | 1.0 µM | 1.0 µM | 1.9 µM | 1.9 µM | – | – |
| LKRKLQR [sample 27, LKRKLQR] | 125.0 µM | 125.0 µM | 500.0 µM | >500 µM | – | – |
| LKRKLQRLKRKLQR [sample 30, LKRKLQRLKRKLQR] | 3.9 µM | 3.9 µM | 3.9 µM | 3.9 µM | – | – |
| PKKKRKVPKKKRKV [sample 16, PKKKRKVPKKKRKV] | – | – | – | – | – | 17.9 µM |
| LPPLERLTL [comparative sample 2, LPPLERLTL, reference compound] | >500 µM | >500 µM | >500 µM | >500 µM | – | – |
| PKKKRKVALGKLALGKL [sample 31, PKKKRKVALGKLALGKL] | 3.9 µM | 7.8 µM | 7.8 µM | 7.8 µM | – | – |
| PKKKRKVLPPLERLTLPKKKRKV [sample 11] | 1.9 µM | 1.9 µM | 3.9 µM | 3.9 µM | – | – |
| LALKLAGLDI [compound 3, LALKLAGLDI, reference compound] | >500 µM | >500 µM | >500 µM | >500 µM | – | – |
